According to ChEMBL document CHEMBL4834424, “Targeting Chikungunya Virus Replication by Benzoannulene Inhibitors” (J Med Chem, 2021):
Calls of active or inactive are those of the source. The rule behind the calls is not given here.

Key:
[1] = Half life in C57BL/6 mouse at 40 mg/kg, ip; assay type: ADME, organism-based; conditions: in vivo
Chikungunya virus [2] = assay: Antiviral activity against CHIKV infected in C57BL/6 mouse right foot assessed as reduction in site of infection at 80 mg/kg, po pretreated 2 hrs before infection followed treated twice a day for 3 days and measured 12 hr post infection of last dose by dilution plaque assay on Vero cells; assay type: functional, organism-based; conditions: time 86.0 hrs
Chikungunya virus [3] = assay: Antiviral activity against CHIKV 99659 infected in Asian tiger mosquito C6/36 cells assessed as reduction in virus titer in cell supernatant by measuring inhibition of plaque formation using Vero cells and measured following infection of supernatants with Vero cells for 48 hrs pi by serial dilution plaque based methylene blue dye analysis; assay type: functional; conditions: Chikungunya virus, 99659, C6
Chikungunya virus [4] = assay: Antiviral activity against CHIKV infected in C57BL/6 mouse right foot assessed as reduction in serum of contralateral ankles tissue at 80 mg/kg, po pretreated 2 hrs before infection followed treated twice a day for 3 days and measured 12 hr post infection of last dose by dilution plaque assay on Vero cells; assay type: functional, organism-based; conditions: time 86.0 hrs
[5] = Cmax in C57BL/6 mouse at 40 mg/kg, po; assay type: ADME, organism-based; set-up: route oral, dose 40 mg/kg; conditions: in vivo
Chikungunya virus [6] = assay type: functional; conditions: 181-25, C6, time 48 hrs
Onyong-nyong virus = assay: Antiviral activity against O'nyong-nyong virus infected in Asian tiger mosquito C6/36 cells assessed as reduction in virus titer in cell supernatant by measuring inhibition of plaque formation using Vero cells and measured following infection of supernatants with Vero cells for 48 hrs pi by serial dilution plaque based methylene blue dye analysis; assay type: functional
[7] = Oral bioavailability in C57BL/6 mouse at 40 mg/kg; assay type: ADME, organism-based; conditions: in vivo
Mayaro virus = assay: Antiviral activity against Mayaro virus TRVL infected in Asian tiger mosquito C6/36 cells assessed as reduction in virus titer in cell supernatant by measuring inhibition of plaque formation using Vero cells and measured following infection of supernatants with Vero cells for 48 hrs pi by serial dilution plaque based methylene blue dye analysis; assay type: functional
[8] = AUC in C57BL/6 mouse at 40 mg/kg, ip; assay type: ADME, organism-based; set-up: dose 40 mg/kg; conditions: in vivo
West Nile virus = assay: Antiviral activity against West nile virus infected in HEK293 cells assessed as reduction in virus titer in cell supernatant by measuring inhibition of plaque formation using Vero cells at 10 uM measured following infection of supernatants with Vero cells for 48 hrs pi by serial dilution plaque based methylene blue dye analysis; assay type: functional
[9] = Aqueous solubility of the compound; assay type: physicochemical; conditions: aqueous; read-out: solubility
[10] = Antiviral activity against Ross river virus infected in Asian tiger mosquito C6/36 cells assessed as reduction in virus titer in cell supernatant by measuring inhibition of plaque formation using Vero cells and measured following infection of supernatants with Vero cells for 48 hrs pi by serial dilution plaque based methylene blue dye analysis; assay type: functional
[11] = test system: Venezuelan equine encephalitis virus; assay: Antiviral activity against Venezuelan equine encephalitis virus TC83 infected in Asian tiger mosquito C6/36 cells assessed as reduction in virus titer in cell supernatant by measuring inhibition of plaque formation using Vero cells and measured following infection of supernatants with Vero cells for 48 hrs pi by serial dilution plaque based methylene blue dye analysis; assay type: functional
[12] = AUC in C57BL/6 mouse at 40 mg/kg, po; assay type: ADME, organism-based; set-up: dose 40 mg/kg; conditions: in vivo
Chikungunya virus [13] = assay: Antiviral activity against CHIKV-nLuc RNA transfected NHDF cells assessed as decrease in Nano-luc signal at 20 uM pretreated 24 hrs before transfection in presence of guanosine measured after 24 hrs by Nano-Glo luciferase assay; assay type: functional, organism-based
[14] = Toxicity in CHIKV infected in C57BL/6 mouse right foot assessed as body weight change at 80 mg/kg, po pretreated 2 hrs before infection followed treated twice a day for 3 days and measured 12 hr post infection of last dose; assay type: organism-based; conditions: in vivo, 86 h
Chikungunya virus [15] = assay: Antiviral activity against CHIKV infected in C57BL/6 mouse right foot assessed as reduction in quadriceps tissue at 80 mg/kg, po pretreated 2 hrs before infection followed treated twice a day for 3 days and measured 12 hr post infection of last dose by dilution plaque assay on Vero cells; assay type: functional, organism-based; conditions: time 86.0 hrs
dengue virus type 2 = assay: Antiviral activity against DENV2 infected in HEK293 cells assessed as reduction in virus titer in cell supernatant by measuring inhibition of plaque formation using Vero cells at 10 uM measured following infection of supernatants with Vero cells for 48 hrs pi by serial dilution plaque based methylene blue dye analysis; assay type: functional
[16] = test system: Venezuelan equine encephalitis virus; assay: Antiviral activity against Venezuelan equine encephalitis virus TC83 infected in human […] cells assessed as reduction in virus titer in cell supernatant by measuring inhibition of plaque formation using Vero cells at 10 uM measured following infection of supernatants with Vero cells for 48 hrs pi by serial dilution plaque based methylene blue dye analysis; assay type: functional, NHDF
[17] = AUC in C57BL/6 mouse at 1 mg/kg, iv; assay type: ADME, organism-based; set-up: dose 1 mg/kg; conditions: in vivo
Chikungunya virus [18] = assay: Antiviral activity against CHIKV infected in C57BL/6 mouse right foot assessed as reduction in serum of ipsilateral tissue at 80 mg/kg, po pretreated 2 hrs before infection followed treated twice a day for 3 days and measured 12 hr post infection of last dose by dilution plaque assay on Vero cells; assay type: functional, organism-based; conditions: time 86.0 hrs
Una virus = assay: Antiviral activity against Una virus MAC150 infected in Asian tiger mosquito C6/36 cells assessed as reduction in virus titer in cell supernatant by measuring inhibition of plaque formation using Vero cells and measured following infection of supernatants with Vero cells for 48 hrs pi by serial dilution plaque based methylene blue dye analysis; assay type: functional
[19] = Bioavailability in C57BL/6 mouse at 40 mg/kg, ip; assay type: ADME, organism-based; conditions: in vivo
Chikungunya virus [20] = assay: Antiviral activity against CHIKV infected in human NHDF cells assessed as reduction in virus titer in cell supernatant by measuring inhibition of plaque formation using Vero cells at 10 uM pretreated with NHDF cells followed by infected with virus incubated for 24 hrs and measured following infection of supernatants with Vero cells for 48 hrs by plaque based methylene blue dye analysis; assay type: functional; conditions: time 72 hrs
[21] = molecular target: Dihydroorotate dehydrogenase (quinone), mitochondrial (Homo sapiens, UniProt Q02127)
Sequence of Dihydroorotate dehydrogenase (quinone), mitochondrial (Q02127 whole entry): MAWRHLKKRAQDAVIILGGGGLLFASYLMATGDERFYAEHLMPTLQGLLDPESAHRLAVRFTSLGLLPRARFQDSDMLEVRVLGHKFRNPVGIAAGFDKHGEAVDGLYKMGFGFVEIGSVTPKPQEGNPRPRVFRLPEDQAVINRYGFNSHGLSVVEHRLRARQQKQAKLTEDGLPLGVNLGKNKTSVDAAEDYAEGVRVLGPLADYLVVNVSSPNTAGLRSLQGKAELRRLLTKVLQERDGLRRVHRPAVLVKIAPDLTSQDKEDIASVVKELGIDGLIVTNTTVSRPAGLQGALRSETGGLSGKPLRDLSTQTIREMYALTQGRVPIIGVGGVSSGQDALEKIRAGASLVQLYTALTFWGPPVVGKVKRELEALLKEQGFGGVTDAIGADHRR

[22] = Half life in C57BL/6 mouse at 40 mg/kg, po; assay type: ADME, organism-based; conditions: in vivo
[23] = Cytotoxicity against human NHDF cells assessed as cell viability measured after 24 hrs by Cell Titer Glo luminescent assay; assay type: cell-based; conditions: NHDF cells
[24] = Cytotoxicity against HEK293 cells at 10 uM; assay type: cell-based; conditions: human
Chikungunya virus [25] = assay: Antiviral activity against CHIKV-nLuc RNA transfected NHDF cells assessed as decrease in Nano-luc signal at 20 uM pretreated 24 hrs before transfection in presence of uridine measured after 24 hrs by Nano-Glo luciferase assay; assay type: functional, organism-based; conditions: time 48.0 hrs
[26] = Metabolic stability in human liver microsomes assessed as half life in presence of NADPH incubated up to 45 mins by LC-MS/MS analysis; assay type: ADME, Microsome
Chikungunya virus [27] = assay: Antiviral activity against CHIKV infected in human NHDF cells assessed as reduction in virus titer in cell supernatant by measuring inhibition of plaque formation using Vero cells pretreated with NHDF cells followed by infected with virus incubated for 24 hrs and measured following infection of supernatants with Vero cells for 48 hrs by plaque based methylene blue dye analysis; assay type: functional, organism-based
[28] = Half life in C57BL/6 mouse at 40 mg/kg, sc; assay type: ADME, organism-based; conditions: in vivo
[29] = Cmax in C57BL/6 mouse at 40 mg/kg, sc; assay type: ADME, organism-based; set-up: route subcutaneous, dose 40 mg/kg; conditions: in vivo
[30] = Bioavailability in C57BL/6 mouse at 40 mg/kg, sc; assay type: ADME, organism-based; conditions: in vivo
[31] = Half life in C57BL/6 mouse at 1 mg/kg, iv; assay type: ADME, organism-based; conditions: in vivo
Chikungunya virus [32] = assay: Antiviral activity against CHIKV infected in C57BL/6 mouse right foot assessed as reduction in spleen at 80 mg/kg, po pretreated 2 hrs before infection followed treated twice a day for 3 days and measured 12 hr post infection of last dose by dilution plaque assay on Vero cells; assay type: functional, organism-based; conditions: time 86.0 hrs
[33] = AUC in C57BL/6 mouse at 40 mg/kg, sc; assay type: ADME, organism-based; set-up: dose 40 mg/kg; conditions: in vivo
[34] = Octanol-aqueous buffer distribution coefficient, log D of the compound by LC-MS analysis; assay type: physicochemical
Chikungunya virus [35] = assay: Antiviral activity against CHIKV 37997 infected in Asian tiger mosquito C6/36 cells assessed as reduction in virus titer in cell supernatant by measuring inhibition of plaque formation using Vero cells and measured following infection of supernatants with Vero cells for 48 hrs pi by serial dilution plaque based methylene blue dye analysis; assay type: functional; conditions: Chikungunya virus, 37997, C6
[36] = Cmax in C57BL/6 mouse at 40 mg/kg, ip; assay type: ADME, organism-based; set-up: route intraperitoneal, dose 40 mg/kg; conditions: in vivo

With `COc1cc2c(cc1C(=O)Nc1ccc(C(C)(C)C#N)cc1)CCCCC2` the half-life [1] was 18.5 h, the Activity (Chikungunya virus [2]) was “inactive” and the EC90 (Chikungunya virus [3]) was 1100 nM. The Activity (Chikungunya virus [4]) was “inactive”, the Cmax [5] was 642 ng/mL and the EC90 (Chikungunya virus [6]) was 980 nM. The EC90 (Onyong-nyong virus) was 890 nM, the bioavailability [7] was 41% and the EC90 (Mayaro virus) was 2300 nM. The AUC [8] was 8570 ng·h/mL, the “log(activity)” value (West Nile virus) was 3.4 and the solubility [9] was less than 1 µM. For the same compound, the EC90 [10] was 850 nM, the EC90 [11] was 2100 nM and the AUC [12] was 7950 ng·h/mL. For the same compound, the Activity (Chikungunya virus [13]) was “Active”, the Activity [14] was “Non-Toxic” and the Activity (Chikungunya virus [15]) was “Active”. The “log(activity)” value (dengue virus type 2) was 2, the “log(activity)” value [16] was 3.1 and the AUC [17] was 497 ng·h/mL. For the same compound, the Activity (Chikungunya virus [18]) was “inactive”, the EC90 (Una virus) was 2500 nM and the bioavailability [19] was 43%. The “log(activity)” value (Chikungunya virus [20]) was 4.5, the IC50 [21] was 310 nM and the half-life [22] was 9.9 h. For the same compound, the CC50 at 24 h [23] was greater than 30000 nM, the CC50 [24] was greater than 30000 nM and the Activity (Chikungunya virus [25]) was “inactive”. The half-life [26] was 132 h, the EC50 (Chikungunya virus [27]) was 270 nM and the half-life [28] was 18.6 h. It also gave a Cmax [29] of 90 ng/mL, a bioavailability [30] of 4% and a half-life [31] of 2.02 h. For the same compound, the Activity (Chikungunya virus [32]) was “Active”, the AUC [33] was 744 ng·h/mL and the logD [34] was greater than 4.4. The EC90 (Chikungunya virus [35]) was 1500 nM and the Cmax [36] was 858 ng/mL.
